Active and inactive are the calls of the source. No cut-off for these calls is given here.
Tests used:
EndoC-betaH1 [1] = assay: Cytotoxicity against human EndoC-betaH1 cells assessed as reduction in cell viability at 10 uM measured after 24 to 72 hrs by PrestoBlue cell viability assay; assay type: toxicity, cell-based; conditions: endoc-betah1, 10 µM, time 24-72 hrs
EndoC-betaH1 [2] = assay: Induction of glucose stimulated insulin secretion in human EndoC-betaH1 cells at 5 uM incubated for 1 hr in presence of GPR119 antagonist by ELISA method (reference value: 2.03 fmol/microg); assay type: functional
EndoC-betaH1 [3] = assay: Induction of glucose stimulated insulin secretion in human EndoC-betaH1 cells at 5 uM incubated for 1 hr in presence of GPR120 antagonist by ELISA method; assay type: functional, cell-based
[4] = Induction of cAMP production in human EndoC-betaH1 cells at 5 uM measured per mg of protein in presence of GPR119 antagonist by ELISA method; assay type: functional
EndoC-betaH1 [5] = assay: Induction of cAMP production in human EndoC-betaH1 cells at 5 uM in presence of GPR40 antagonist by ELISA method; assay type: functional, cell-based
Cell membrane = assay: Induction of cell membrane permeabilization in human EndoC-betaH1 cells at 10 uM measured upto 3.5 mins propidium iodide staining based fluorescence analysis; assay type: subcellular
EndoC-betaH1 [6] = assay: Induction of cAMP production in human EndoC-betaH1 cells at 5 uM in presence of GPR55 antagonist by ELISA method; assay type: functional, cell-based
EndoC-betaH1 [7] = assay: Effect on intracellular calcium mobilization in human EndoC-betaH1 cells at 5 uM measured after 3 mins; assay type: functional, cell-based
EndoC-betaH1 [8] = assay: Induction of cAMP production in human EndoC-betaH1 cells at 5 uM in presence of GPR120 antagonist by ELISA method; assay type: functional, cell-based
EndoC-betaH1 [9] = assay: Induction of insulin secretion in human EndoC-betaH1 cells at 5 uM incubated for 1 hr by ELISA method; assay type: functional, cell-based
EndoC-betaH1 [10] = assay: Induction of glucose stimulated insulin secretion in human EndoC-betaH1 cells at 5 uM incubated for 1 hr in presence of GPR55 antagonist by ELISA method; assay type: functional, cell-based
[11] = Induction of cAMP production in human EndoC-betaH1 cells at 5 uM by ELISA method; assay type: functional
EndoC-betaH1 [12] = assay: Induction of glucose stimulated insulin secretion in human EndoC-betaH1 cells at 1 uM incubated for 1 hr in presence of GPR119 antagonist by ELISA method; assay type: functional, cell-based
EndoC-betaH1 [13] = assay: Induction of glucose stimulated insulin secretion in human EndoC-betaH1 cells at 5 uM incubated for 1 hr in presence of GPR40 antagonist by ELISA method; assay type: functional, cell-based
EndoC-betaH1 [14] = assay: Induction of glucose stimulated insulin secretion in human EndoC-betaH1 cells transfected with siRNA measured after 48 hrs in presence of GPR119 antagonist by ELISA method; assay type: functional, cell-based
EndoC-betaH1 [15] = assay: Induction of glucose stimulated insulin secretion in human EndoC-betaH1 cells at 100 nM incubated for 1 hr in presence of GPR119 antagonist by ELISA method; assay type: functional, cell-based
EndoC-betaH1 [16] = assay: Induction of glucose stimulated insulin secretion in human EndoC-betaH1 cells at 5 uM incubated for 1 hr in presence of GPR119 antagonist by ELISA method; assay type: functional, cell-based
EndoC-betaH1 [17] = assay: Induction of cAMP production in human EndoC-betaH1 cells at 5 uM in presence of GPR119 antagonist by ELISA method; assay type: functional, cell-based
EndoC-betaH1 [18] = assay: Cytotoxicity against human EndoC-betaH1 cells assessed as reduction in cell viability at 5 uM measured after 48 to 72 hrs by PrestoBlue cell viability assay; assay type: toxicity, cell-based; conditions: endoc-betah1, 5 µM, time 48-72 hrs
EndoC-betaH1 [19] = assay: Cytotoxicity against human EndoC-betaH1 cells assessed as reduction in cell viability at 10 to 1000 uM measured after 24 to 72 hrs by PrestoBlue cell viability assay; assay type: toxicity, cell-based; conditions: endoc-betah1, 1000 µM, dose lower 10 µM, time lower 24 hrs, dose upper 1000 µM, time upper 72 hrs
EndoC-betaH1 [20] = assay: Induction of glucose stimulated insulin secretion in human EndoC-betaH1 cells at 5 uM incubated for 1 hr in presence of GPR119 antagonist by ELISA method (reference value: 1.97 fmol/microg); assay type: functional
EndoC-betaH1 [21] = assay: Cytotoxicity against human EndoC-betaH1 cells assessed as reduction in cell viability at 1 uM measured after 24 to 72 hrs by PrestoBlue cell viability assay; assay type: toxicity, cell-based; conditions: endoc-betah1, 1 µM, time 24-72 hrs

Compound	Activity (EndoC-betaH1 [3])	Activity [4] [pmol]	Activity (EndoC-betaH1 [5])	Activity (Cell membrane)	Activity (EndoC-betaH1 [6])	Activity (EndoC-betaH1 [7])	Activity (EndoC-betaH1 [8])	Activity (EndoC-betaH1 [9])	Activity (EndoC-betaH1 [10])	Activity (EndoC-betaH1 [13])	Activity (EndoC-betaH1 [14])	other results
CCCCCC/C=C\CCCCCCCC(=O)OC[C@@H](O)COP(=O)([O-])OCC[N+](C)(C)C	Active	0.8	Active	inactive	inactive	inactive	Active	Active	Active	Active	inactive	Activity (EndoC-betaH1 [1]): Non-Toxic; Activity (EndoC-betaH1 [2]): 1.47 fmol/µg; Activity [11]: 1.87 pg/µg; Activity (EndoC-betaH1 [12]): Active
CC(C)c1noc(C2CCN(c3ncnc(Nc4ccc(S(C)(=O)=O)cc4F)c3[N+](=O)[O-])CC2)n1												Activity (EndoC-betaH1 [15]): Active
CCCCCCCCCCCCCCCC(=O)OC[C@@H](O)COP(=O)([O-])OCC[N+](C)(C)C	Active		Active	inactive	Active	inactive	Active	Active	Active	Active		Activity (EndoC-betaH1 [16]): inactive; Activity (EndoC-betaH1 [17]): Active
CCCCCC/C=C/CCCCCCCC(=O)OC[C@@H](O)COP(=O)([O-])OCC[N+](C)(C)C	Active	0.65	Active	inactive		inactive	Active	Active	Active	Active	inactive	Activity (EndoC-betaH1 [18]): Toxic; Activity (EndoC-betaH1 [19]): Toxic; Activity (EndoC-betaH1 [20]): 1.34 fmol/µg; Activity (EndoC-betaH1 [21]): Non-Toxic
